Results reported in US20120101083A1, “S1P1 AGONISTS COMPRISING A BICYCLIC N-CONTAINING RING” (GLAXO GROUP LIMITED, priority 2009, published 2012).
Where a name gives a salt, the structure may show the parent alone.

How the values were obtained:
[1] = system: circulating lymphocytes; conditions: animals and man; cited from earlier work
[2] = clinical studies, first 24 hours of treatment; cited from earlier work
[3] = biological target: T1, human Endothelial Differentiation Gene 1 (EDG1) (Homo sapiens, UniProt P21453); test: S1P1 Tango assay, 384 well format; assay type: cell-based; conditions: EDG1-bla/U2OS cells
T1 construct: TEV protease cleavage site; Gal4-VP16 transcription factor (printed Ga14-VP16); expressed in transfected cells; host or cells: Tango GPCR-bla U2OS parental cell line (EDG1-bla/U2OS)
Description: S1P1 Tango Assay—384 Well Format
Recombinant EDG1-bla/U2OS cells (contain the human Endothelial Differentiation Gene 1 (EDG1) linked to a TEV protease site and a Ga14-VP16 transcription factor stably integrated into the Tango GPCR-bla U20S parental cell line) were harvested from growth medium and passaged into assay medium (Invitrogen Freestyle Expression Medium). The cells were starved for 24 hours at 37° C., 5% CO2, harvested and resuspended in assay medium at a density of ˜200,000 cells/ml. All test compounds were dissolved in DMSO at a concentration of 10 mM and were prepared in 100% DMSO to provide 10 point dose response curves. Test compounds prepared by Bravo (Velocity11) were added to wells in columns 2-11 and 13-22; DMSO was added to wells in columns 12 and 23 as unstimulated controls and assay medium was added to wells in columns 1 and 24 as cell-free controls. […]
10 μl of 6× substrate mixture (LiveBLAzer™-FRET B/G substrate (CCF4-AM) Cat # K1096 from Invitrogen, Inc.) was added to each well using Bravo and the plates incubated at room temperature for 2 h in the dark. The plate was finally read on EnVision using one excitation channel (409 nm) and two emission channels (460 nm and 530 nm).
The blue/green emission ratio (460 nm/530 nm) was calculated for each well, by dividing the background-subtracted Blue emission values by the background-subtracted Green emission values. […]

[4] = biological target: T2, human Endothelial Differentiation G-protein Coupled Receptor 3 (EDG3) (Homo sapiens, UniProt Q99500); test: S1P3 GeneBlazer assay; assay type: cell-based; conditions: EDG3-Ga15-NFAT-bla HEK 293T cells
T2 construct: expressed in transfected cells; host or cells: GeneBLAzer Ga15-NFAT-bla HEK 293T cell line
Description: GeneBLAzer EDG3-Ga15-NFAT-bla HEK 293T cells (contain the human Endothelial Differentiation G-protein Coupled Receptor 3 (EDG3) and a beta-lactamase reporter gene under control of a NFAT response element and a promiscuous G Protein, Ga15, stably integrated into the GeneBLAzer Ga15-NFAT-bla HEK 293T cell line) were suspended in assay medium (99% DMEM, 1% Dialyzed FBS, 0.1 mM NEAA, 25 mM HEPES (pH 7.3), 100 U/ml penicillin, 100 μg/ml streptomycin) at a density of 312, 500 cells/ml. Add 100 μl/well of the assay medium to the cell-free control wells (column 12) and 100 μl/well of the cell suspension to the test compound wells (row 2-8, column 1-10), the unstimulated control wells (DMSO) (column 11), and stimulated control wells (S1P) (row 1, column 1-10) in a Corning black-well, clear bottom 96-well plate. Cells were incubated at 37° C., 5% CO2 for 24 h. […]
After incubation at 37° C., 5% CO2 for 5 h, 25 μl of 6× substrate mixture (6 μl Solution A (1 mg LiveBLAzer™-FRET B/G Substrate (CCF4-AM) in 912 μl DMSO) plus 60 μl Solution B plus 934 μl Solution C) was added to each well and incubate at room temperature for 2 h in dark. The plate was finally read on EnVision for two emission channels (460 nm and 530 nm). […]

[5] = biological target: T3, S1P1 receptor (S1P1 expressing RH7777 membranes) (Homo sapiens, UniProt P21453); test: S1P1 GTPγS assay; assay type: biochemical; conditions: tested in one of the above S1P1 assays (two GTPγS formats)
T3 construct: expressed in transfected cells; host or cells: RH7777 cells (membranes)
Outline: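 Membranes from RH7777 cells expressing human S1P1 (1.5 μg/well) precoupled 30 min on ice to WGA SPA beads in 20 mM HEPES pH 7.4, 10 mM MgCl2, 100 mM NaCl, with 10 μM GDP and 90 μg/ml saponin. [35S]-GTPγS 0.5 nM final added with compound; SPA signal read immediately.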

[6] = biological target: T4, S1P1 (PathHunter CHO-K1 EDG1 β-Arrestin cell line) (Homo sapiens, UniProt P21453); test: S1P-1 β-Arrestin recruitment assay; assay type: cell-based; conditions: CHO-K1 EDG1 β-Arrestin cells, chemi-luminescence
T4 construct: host or cells: PathHunter CHO-K1 EDG1 β-Arrestin cell line
Outline: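 CHO-K1 cells expressing S1P1 and β-arrestin 2 fused to complementing β-galactosidase fragments, at 1×10^4 cells/well in pH 7.4 buffer with 0.1% BSA. Compound exposure 90 min at 37 °C then 15 min room temperature; chemiluminescent substrate added for 60 min before luminescence read.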

T3 sequence (P21453 whole entry): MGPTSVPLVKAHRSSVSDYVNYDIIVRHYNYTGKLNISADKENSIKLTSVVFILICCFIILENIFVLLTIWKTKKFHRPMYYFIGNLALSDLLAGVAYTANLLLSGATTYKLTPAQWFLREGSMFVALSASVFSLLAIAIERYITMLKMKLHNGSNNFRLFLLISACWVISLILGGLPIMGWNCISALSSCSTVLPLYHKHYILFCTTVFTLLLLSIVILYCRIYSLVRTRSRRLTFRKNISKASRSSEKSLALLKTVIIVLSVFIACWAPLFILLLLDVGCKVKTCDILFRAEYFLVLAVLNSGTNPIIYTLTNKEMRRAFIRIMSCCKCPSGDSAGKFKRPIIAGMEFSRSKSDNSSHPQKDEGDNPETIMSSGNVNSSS
T4 sequence (P21453 whole entry): as above
T4 sequence (P32121 whole entry partner): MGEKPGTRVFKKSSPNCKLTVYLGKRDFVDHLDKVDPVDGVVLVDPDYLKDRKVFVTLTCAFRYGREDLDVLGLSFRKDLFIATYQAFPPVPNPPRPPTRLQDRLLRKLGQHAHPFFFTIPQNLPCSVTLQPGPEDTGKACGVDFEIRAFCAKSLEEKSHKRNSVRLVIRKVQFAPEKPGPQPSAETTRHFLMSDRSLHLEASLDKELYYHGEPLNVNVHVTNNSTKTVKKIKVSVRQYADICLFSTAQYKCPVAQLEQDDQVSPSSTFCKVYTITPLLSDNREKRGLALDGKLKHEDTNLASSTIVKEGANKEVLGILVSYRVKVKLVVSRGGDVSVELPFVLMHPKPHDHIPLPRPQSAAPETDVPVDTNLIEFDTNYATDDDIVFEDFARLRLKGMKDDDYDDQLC
T1 sequence (P21453 whole entry, the tested form may be a part): as the sequence (P21453 whole entry) above
T2 sequence (Q99500 whole entry): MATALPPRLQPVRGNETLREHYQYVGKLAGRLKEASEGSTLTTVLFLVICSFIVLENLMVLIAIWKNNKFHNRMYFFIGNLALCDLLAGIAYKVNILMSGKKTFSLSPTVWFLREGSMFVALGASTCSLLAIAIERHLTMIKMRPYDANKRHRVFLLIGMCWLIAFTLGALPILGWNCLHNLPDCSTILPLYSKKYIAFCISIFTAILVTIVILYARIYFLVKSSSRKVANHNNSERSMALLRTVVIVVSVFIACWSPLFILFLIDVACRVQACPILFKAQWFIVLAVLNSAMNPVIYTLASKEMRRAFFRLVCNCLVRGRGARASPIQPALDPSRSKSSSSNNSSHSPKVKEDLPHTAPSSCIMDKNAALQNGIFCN

Row | SMILES | EC50 [5] | EC50 [6] | further results
1 | CCCCCCCCc1ccc(CCC(N)(CO)CO)cc1 [FTY720] |  |  | circulating lymphocytes [1]: reduce circulating lymphocytes in animals and man; bradycardia [2]: bradycardia in the first 24 hours of treatment
2 | CCc1c(-c2nnc(-c3ccc(OC(C)C)c(C#N)c3)s2)ccc2c1CCN(C(CO)CO)C2 [Example 205, 5-(5-{5-ethyl-2-[2-hydroxy-1-(hydroxymethyl)ethyl]-1,2,3,4-tetrahydro-6-isoquinolinyl}-1,3,4-thiadiazol-2-yl)-2-[(1-methylethyl)oxy]benzonitrile] |  |  | EC50 [3]: < 100 nM; EC50 [4]: > 10000 nM
3 | CCc1c(-c2cnc(-c3ccc(OC(C)C)c(C#N)c3)s2)ccc2c1CCN(C(CO)CO)C2 [Example 204, 5-(5-{5-ethyl-2-[2-hydroxy-1-(hydroxymethyl)ethyl]-1,2,3,4-tetrahydro-6-isoquinolinyl}-1,3-thiazol-2-yl)-2-[(1-methylethyl)oxy]benzonitrile] |  |  | EC50 [3]: < 1000 nM; EC50 [4]: > 10000 nM
4 | CC(C)Oc1ccc(-c2nc(-c3ccc4c(c3)CCN(C(=O)CNC(CO)CO)CC4)no2)cc1C#N [Example 197, 5-[3-(3-{N-[2-hydroxy-1-(hydroxymethyl)ethyl]glycyl}-2,3,4,5-tetrahydro-1H-3-benzazepin-7-yl)-1,2,4-oxadiazol-5-yl]-2-[(1-methylethyl)oxy]benzonitrile hydrochloride] | ≤ 100 nM | ≤ 10 nM | 
5 | CC(C)Oc1ccc(-c2nc(-c3ccc4c(c3)CCN(CC(=O)N3CCOCC3)CC4)no2)cc1C#N [Example 92, 2-[(1-methylethyl)oxy]-5-(3-{3-[2-(4-morpholinyl)-2-oxoethyl]-2,3,4,5-tetrahydro-1H-3-benzazepin-7-yl}-1,2,4-oxadiazol-5-yl)benzonitrile hydrochloride] | ≤ 10 nM | ≤ 100 nM | 
6 | CC(C)Nc1ncc(-c2nc(-c3ccc4c(c3)CCN(C[C@H](O)CO)CC4)no2)cc1C#N [Example 114, 5-(3-{3-[(2S)-2,3-dihydroxypropyl]-2,3,4,5-tetrahydro-1H-3-benzazepin-7-yl}-1,2,4-oxadiazol-5-yl)-2-[(1-methylethyl)amino]-3-pyridinecarbonitrile] | ≤ 1000 nM | ≤ 100 nM | 
7 | Cc1c(-c2noc(-c3cnc(OC(C)C)c(C#N)c3)n2)ccc2c1CCN(C[C@H](O)CO)C2 [Example 132, 5-(3-{2-[(2S)-2,3-dihydroxypropyl]-5-methyl-1,2,3,4-tetrahydro-6-isoquinolinyl}-1,2,4-oxadiazol-5-yl)-2-[(1-methylethyl)oxy]-3-pyridinecarbonitrile] | ≤ 1000 nM | ≤ 100 nM | 
8 | CC(C)Oc1ccc(-c2nc(-c3ccc4c(c3)CCN(C(=O)CN3CC(O)C3)CC4)no2)cc1C#N [Example 106, 5-(3-{3-[(3-hydroxy-1-azetidinyl)acetyl]-2,3,4,5-tetrahydro-1H-3-benzazepin-7-yl}-1,2,4-oxadiazol-5-yl)-2-[(1-methylethyl)oxy]benzonitrile hydrochloride] | ≤ 1000 nM | ≤ 100 nM | 

Second part, led by results:

Row | EC50 [5] | EC50 [6] | SMILES | further results
9 | ≤ 10 nM | ≤ 100 nM | CC(C)Oc1ccc(-c2nc(-c3cccc4c3CCN(C(=O)[C@H](N)CO)C4)no2)cc1C#N [Example 90, 2-[(1-methylethyl)oxy]-5-[3-(2-D-seryl-1,2,3,4-tetrahydro-5-isoquinolinyl)-1,2,4-oxadiazol-5-yl]benzonitrile hydrochloride] | 
10 | ≤ 100 nM | ≤ 10 nM | CNCCC(=O)N1CCc2c(ccc(-c3noc(-c4ccc(OC(C)C)c(C#N)c4)n3)c2C)C1 [Example 40, 2-[(1-methylethyl)oxy]-5-{3-[5-methyl-2-(N-methyl-b-alanyl)-1,2,3,4-tetrahydro-6-isoquinolinyl]-1,2,4-oxadiazol-5-yl}benzonitrile hydrochloride] | 
11 | ≤ 100 nM | ≤ 100 nM | CC(C)Oc1ccc(-c2nc(-c3ccc4c(c3)CCN(C(CO)CO)CC4)no2)cc1C#N [Example 68, 5-(3-{3-[2-hydroxy-1-(hydroxymethyl)ethyl]-2,3,4,5-tetrahydro-1H-3-benzazepin-7-yl}-1,2,4-oxadiazol-5-yl)-2-[(1-methylethyl)oxy]benzonitrile] | 
12 | ≤ 100 nM | ≤ 10 nM | CC(C)Oc1ccc(-c2nc(-c3ccc4c(c3)CCN(C[C@H](O)CO)CC4)no2)cc1C#N [Example 72, 5-(3-{3-[(2S)-2,3-dihydroxypropyl]-2,3,4,5-tetrahydro-1H-3-benzazepin-7-yl}-1,2,4-oxadiazol-5-yl)-2-[(1-methylethyl)oxy]benzonitrile] | 
